Assay results reported in patent publication US10294229B2, “Heteroaryl substituted aminopyridine compounds” (BRISTOL-MYERS SQUIBB COMPANY, priority 2015, dated 2019).

Assays:
[1] = target: IRAK4 (Homo sapiens (Human), UniProt Q9NWZ3); test: IRAK4 Inhibition Assay; type: biochemical; conditions: ATP 500 μM; IRAK4 0.6 nM
Procedure, shortened: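 Readout: electrophoretic (LabChip) separation of fluorescent peptide substrate from phosphorylated product after EDTA quench. Reactions ran 60 min at room temperature with 0.6 nM IRAK4, 1.5 μM peptide and 500 μM ATP; inhibition referenced to no-enzyme (100%) and vehicle (0%) controls.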

[2] = Caco-2 Permeability Assay; type: in vitro ADME; conditions: human, Caco-2, test compound 3 μM
Procedure: Caco-2 Permeability Assay
Thirteen to 27 days prior to assay, Caco-2 cells were seeded onto collagen-coated polycarbonate filter membranes in 24-well transwell plates at a density of 1.45×10^5 cells/cm^2, approximately 4.8×10^4 cells per well. The cells were grown in a culture medium consisting of DMEM supplemented with 10% fetal bovine serum, 10 mM HEPES, 1% nonessential amino acids, 2 mM L-glutamine, 100 U/mL penicillin-G, and 100 μg/mL streptomycin. The culture medium was replaced every 3 days and the cells were maintained at 37° C. in a 95% relative humidity and 5% CO2 atmosphere. The cells were evaluated for tight junction formation just prior to assay. The test compound was solubilized to 10 mM in 100% DMSO and diluted to 3 μM in assay buffer. Permeability studies were initiated by adding 200 μL assay buffer plus/minus compound to the apical transwell compartment and 600 μL assay buffer plus/minus compound to the basolateral compartment of the 24-well transwell low-binding cluster plate. For apical-to-basolateral (A to B) permeability (absorptive direction), buffer containing compound was placed in the apical compartment (donor wells), while buffer alone was placed in the corresponding basolateral compartments (receiver wells). For basolateral-to-apical (B to A) permeability (secretive direction), buffer containing compound was placed in the basolateral compartment (donor wells), while buffer alone was placed in the corresponding apical compartments (receiver wells). Transwells were then incubated for 2 hours at 37° C. in a 95% relative humidity and 5% CO2 atmosphere with gentle agitation. Following incubation, 100 μL was removed from each apical and basolateral compartment and transferred to 96-well low binding plates that had been previously loaded with 100 μL/well of acetonitrile containing 250 nM propranolol, 250 nM diclofenac, and 500 nM tolbutamide as internal standards. The samples were subsequently analyzed by LC-MS/MS to determine concentrations of compound.

[3] = test system: Human whole blood stimulated with a TLR2 agonist (lipoteichoic acid), IL-6 levels; test: IRAK4 Whole Blood Assay; type: cell-based; conditions: Homo sapiens, lipoteichoic acid 10 μg/mL
Procedure, shortened: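 IL-6 was quantified by cytometric bead assay in supernatants of human blood (ACD-A) stimulated for 5 h with lipoteichoic acid at 10 μg/mL final. Compound exposure preceded stimulation for 60 min at 37 °C, 5% CO2.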

IRAK4, sequence (Q9NWZ3 whole entry, species assumed): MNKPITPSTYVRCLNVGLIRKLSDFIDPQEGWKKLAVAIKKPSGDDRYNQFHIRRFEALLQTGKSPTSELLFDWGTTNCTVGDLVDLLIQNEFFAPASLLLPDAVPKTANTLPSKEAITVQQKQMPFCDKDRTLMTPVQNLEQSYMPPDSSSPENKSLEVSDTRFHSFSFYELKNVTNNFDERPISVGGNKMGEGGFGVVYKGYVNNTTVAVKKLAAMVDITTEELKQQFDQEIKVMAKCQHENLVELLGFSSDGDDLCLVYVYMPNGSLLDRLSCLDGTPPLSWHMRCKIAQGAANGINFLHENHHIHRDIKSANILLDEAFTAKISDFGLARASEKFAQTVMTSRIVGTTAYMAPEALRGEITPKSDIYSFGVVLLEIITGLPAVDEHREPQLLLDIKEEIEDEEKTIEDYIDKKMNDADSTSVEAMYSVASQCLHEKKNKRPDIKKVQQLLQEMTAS

Compound	IC50 [1] [nM]	Papp at 2 h, 3 µM [2] [×10⁻⁶ cm/s]	EC50 [3] [nM]
CC(C)(O)CCc1cn(-c2cnc(-n3ncc4cc(C#N)cnc43)cc2NC(CF)CF)nn1 [Example 377, 1-(4-((1,3-difluoropropan-2-yl)amino)-5-(4-(3-hydroxy-3-methylbutyl)-1H-1,2,3-triazol-1-yl)pyridin-2-yl)-1H-pyrazolo[3,4-b]pyridine-5-carbonitrile]	7	< 1.5	240
CC(C)Nc1cc(-n2ncc3cc(C#N)cnc32)ncc1-n1cc(CCC(C)(C)O)cn1 [Example 390, 1-(5-(4-(3-hydroxy-3-methylbutyl)-1H-pyrazol-1-yl)-4-(isopropylamino)pyridin-2-yl)-1H-pyrazolo[3,4-b]pyridine-5-carbonitrile]	8	37.1	270
CCCn1cc(-c2cnc(-n3cnc4cnc(N)nc43)cc2NC(C)C)nn1 [Example 62, 9-(4-(isopropylamino)-5-(1-propyl-1H-1,2,3-triazol-4-yl)pyridin-2-yl)-9H-purin-2-amine]	4	32.1	140
CC(C)Nc1cc(-n2ncc3cc(C#N)cnc32)ncc1-n1cc(CCN2CCOCC2)nn1 [Example 349, 1-(4-(isopropylamino)-5-(4-(2-morpholinoethyl)-1H-1,2,3-triazol-1-yl)pyridin-2-yl)-1H-pyrazolo[3,4-b]pyridine-5-carbonitrile]	3	18.6	270
CC(C)Nc1cc(-n2ncc3cc(C#N)cnc32)ncc1-c1cn([C@H]2CC[C@H](NCC(F)F)CC2)nn1 [Example 394, 1-(5-(1-((1r,4r)-4-((2,2-difluoroethyl)amino)cyclohexyl)-1H-1,2,3-triazol-4-yl)-4-(isopropylamino)pyridin-2-yl)-1H-pyrazolo[3,4-b]pyridine-5-carbonitrile]	2	9.1	250
Cc1n[nH]c(C)c1CCn1cc(-c2cnc(-n3ncc4cc(C#N)cnc43)cc2NC(C)C)nn1 [Example 102, 1-(5-(1-(2-(3,5-dimethyl-1H-pyrazol-4-yl)ethyl)-1H-1,2,3-triazol-4-yl)-4-(isopropylamino)pyridin-2-yl)-1H-pyrazolo[3,4-b]pyridine-5-carbonitrile]	4	< 1.5	1110
CC(C)(O)CCc1cn(-c2cnc(-n3ncc4cc(C#N)cnc43)cc2NC2CCC(F)(F)C2)nn1 (single isomer, unassigned) [Example 347, 1-(4-((3,3-difluorocyclopentyl)amino)-5-(4-(3-hydroxy-3-methylbutyl)-1H-1,2,3-triazol-1-yl)pyridin-2-yl)-1H-pyrazolo[3,4-b]pyridine-5-carbonitrile]	2	9.7	430
CC(C)Nc1cc(-n2ncc3cc(C#N)cnc32)ncc1-c1cn(CCC(F)(F)F)nn1 [Example 41, 1-(4-(isopropylamino)-5-(1-(3,3,3-trifluoropropyl)-1H-1,2,3-triazol-4-yl)pyridin-2-yl)-1H-pyrazolo[3,4-b]pyridine-5-carbonitrile]	4	27.8	320
CC(C)(O)CCc1cn(-c2cnc(-n3ncc4cc(C#N)cnc43)cc2NC2CCOC2)nn1 [Example 365, (S)-1-(5-(4-(3-hydroxy-3-methylbutyl)-1H-1,2,3-triazol-1-yl)-4-((tetrahydrofuran-3-yl)amino)pyridin-2-yl)-1H-pyrazolo[3,4-b]pyridine-5-carbonitrile]	3	< 1.5	410
COC(=O)N1CC[C@@H](n2cc(-c3cnc(-n4ncc5cc(C#N)cnc54)cc3NC3CC3)nn2)[C@](C)(O)C1 (relative stereo) [Example 208, (trans)-methyl 4-(4-(6-(5-cyano-1H-pyrazolo[3,4-b]pyridin-1-yl)-4-(cyclopropylamino)pyridin-3-yl)-1H-1,2,3-triazol-1-yl)-3-hydroxy-3-methylpiperidine-1-carboxylate]	6	2.6	1510
CC(C)(F)CCc1cn(-c2cnc(-n3ncc4cc(C#N)cnc43)cc2NC2COC2)nn1 [Example 363, 1-(5-(4-(3-fluoro-3-methylbutyl)-1H-1,2,3-triazol-1-yl)-4-(oxetan-3-ylamino)pyridin-2-yl)-1H-pyrazolo[3,4-b]pyridine-5-carbonitrile]	6	15.6	330
CC(=O)N1CCC(c2cc(-c3cnc(-n4ncc5cc(C#N)cnc54)cc3NC(C)C)on2)CC1 [Example 402, 1-(5-(3-(1-acetylpiperidin-4-yl)isoxazol-5-yl)-4-(isopropylamino)pyridin-2-yl)-1H-pyrazolo[3,4-b]pyridine-5-carbonitrile]	2	19.2	250
CC(C)Nc1cc(-n2ncc3cc(C#N)cnc32)ncc1-n1cc(CCCO)nn1 [Example 296, 1-(5-(4-(3-hydroxypropyl)-1H-1,2,3-triazol-1-yl)-4-(isopropylamino)pyridin-2-yl)-1H-pyrazolo[3,4-b]pyridine-5-carbonitrile]	11	4.4	240
CC(C)Nc1cc(-n2ncc3cc(C#N)cnc32)ncc1-n1cc(C2CCN(C(C)C)CC2)nn1 [Example 337, 1-(4-(isopropylamino)-5-(4-(1-isopropylpiperidin-4-yl)-1H-1,2,3-triazol-1-yl)pyridin-2-yl)-1H-pyrazolo[3,4-b]pyridine-5-carbonitrile]	6	< 1.5	280
CC(C)(O)CCc1cn(-c2cnc(-n3ncc4cc(C#N)cnc43)cc2NC2CCC(F)CC2)nn1 (centres unmarked) [Example 374, 1-(4-(((1r,4r)-4-fluorocyclohexyl)amino)-5-(4-(3-hydroxy-3-methylbutyl)-1H-1,2,3-triazol-1-yl)pyridin-2-yl)-1H-pyrazolo[3,4-b]pyridine-5-carbonitrile]		3.2	380
COC(=O)NCC1CC(c2cnc(-n3ncc4cc(C#N)cnc43)cc2NC(C)C)=NO1 (single isomer, unassigned) [Example 436, Methyl ((3-(6-(5-cyano-1H-pyrazolo[3,4-b]pyridin-1-yl)-4-(isopropylamino)pyridin-3-yl)-4,5-dihydroisoxazol-5-yl)methyl)carbamate]		31.9	290
CC(C)(O)CCc1cn(-c2cnc(-n3ncc4cc(C#N)cnc43)cc2NC2COC2)nn1 [Example 359, 1-(5-(4-(3-hydroxy-3-methylbutyl)-1H-1,2,3-triazol-1-yl)-4-(oxetan-3-ylamino)pyridin-2-yl)-1H-pyrazolo[3,4-b]pyridine-5-carbonitrile]		< 1.5	220
CC(C)Nc1cc(-n2ncc3cc(C#N)cnc32)ncc1-c1cn([C@@H]2CCNC[C@@H]2F)nn1 (relative stereo) [Example 209, 1-(5-(1-((cis)-3-fluoropiperidin-4-yl)-1H-1,2,3-triazol-4-yl)-4-(isopropylamino)pyridin-2-yl)-1H-pyrazolo[3,4-b]pyridine-5-carbonitrile]		2.4	490
CC(C)Nc1cc(-n2ncc3cc(C#N)cnc32)ncc1-c1cc(CC(C)(C)O)on1 [Example 438, 1-(5-(5-(2-hydroxy-2-methylpropyl)isoxazol-3-yl)-4-(isopropylamino)pyridin-2-yl)-1H-pyrazolo[3,4-b]pyridine-5-carbonitrile]		27.3	230
COC(=O)NC1CCC(c2cc(-c3cnc(-n4ncc5cc(C#N)cnc54)cc3NC(C)C)on2)CC1 (centres unmarked) [Example 411, methyl ((1s,4s)-4-(5-(6-(5-cyano-1H-pyrazolo[3,4-b]pyridin-1-yl)-4-(isopropylamino)pyridin-3-yl)isoxazol-3-yl)cyclohexyl)carbamate]		26.9	430
CC(=O)NC1CCC(c2cc(-c3cnc(-n4ncc5cc(C#N)cnc54)cc3NC(C)C)on2)CC1 (centres unmarked) [Example 410, N-((1s,4s)-4-(5-(6-(5-cyano-1H-pyrazolo[3,4-b]pyridin-1-yl)-4-(isopropylamino)pyridin-3-yl)isoxazol-3-yl)cyclohexyl)acetamide]		14.8	300
